These results are taken from patent US20220218837A1, “DRUG CONJUGATE” (priority 2018, published 2022).

Data set [1] deals with A431 cells (EGFR++/HER2+/-/CD71+).
In data set [2] the test system is A2058 cells (EGFR-).
In data set [3] the test system is HeLa cells (EGFR+/-). As to the kind of experiment: Cell killing / cell viability, HeLa cells.
The subject of data set [4] is HSP27 mRNA in A431 cells (EGFR++). The data set can be described thus: HSP27 gene silencing in A431 cells. Format: cell-based, human. The method, then:
(§1) Cells were seeded in DMEM (PAN-Biotech GmbH) supplemented with 10% fetal bovine serum (PAN-Biotech GmbH) and 1% penicillin/streptomycin (PAN-Biotech GmbH), in a 96 well plate at 5,000 c/w in 100 μL/well and incubated overnight at 37° C. and 5% CO2. The next day samples were prepared in DMEM and cells were treated.
(§2) RNA isolation and Qper analysis was performed according to standard procedures and protocols.

Data set [5] has as its system HSP27 mRNA in A2058 cells (EGFR-). As to the kind of experiment: HSP27 gene silencing in A2058 cells. Format: cell-based, human. The following applies: titrated + fixed 4000 nM SO1861-EMCH, nM of HSP27BNA or of conjugate. How it is done: as §1, §2
For data set [6], the system named is SK-BR-3, JIMT-1, MDA-MB-468, A431, CaSki, HeLa, A2058. The data set can be described thus: Control treatments, relative cell viability on all cell lines. The data set is classed as cell-based, human. The following applies: wide range of toxin concentrations, up to 100.000 pM.

Turning to `CC(=O)OC1C(C)OC(OC2C(C)OC(OC(=O)[C@]34CCC(C)(C)CC3C3=CCC5[C@@]6(C)CC[C@H](OC7OC(C(=O)O)C(O)C(OC8OCC(O)C(O)C8O)C7OC7OC(CO)C(O)C(O)C7O)[C@@](C)(/C=N/NC(=O)CCCCCN7C(=O)C=CC7=O)C6CC[C@@]5(C)[C@]3(C)C[C@H]4O)C(OC3OC(C)C(OC4OCC(O)C(OC5OC(CO)C(O)C(O)C5O)C4O)C(O)C3O)C2O)C(O)C1OC1OCC(O)C(O)C1O` (some centres unmarked) [SO1861-EMCH], the “concentration above which general toxicity is seen without EGFdianthin” value in data set [1] (single compound), in data set [2] (single compound) and in data set [3] (single compound) was above 25.000 nM in each case. Further, the “IC50 cell viability reduction” value in data set [2] (titrated + fixed […] EGFdianthin) is “not affected at all”.

Consider `CC(=O)OC1C(C)OC(OC2C(C)OC(OC(=O)[C@]34CCC(C)(C)CC3C3=CCC5[C@@]6(C)CC[C@H](OC7OC(C(=O)O)C(O)C(OC8OCC(O)C(O)C8O)C7OC7OC(CO)C(O)C(O)C7O)[C@@](C)(C=O)C6CC[C@@]5(C)[C@]3(C)C[C@H]4O)C(OC3OC(C)C(OC4OCC(O)C(OC5OC(CO)C(O)C(O)C5O)C4O)C(O)C3O)C2O)C(O)C1OC1OCC(O)C(O)C1O` (some centres unmarked) [SO1861], for which the IC50 cell killing entry in data set [1] (substance alone, no partner) is “strong cell viability reduction”; in data set [2] (substance alone, no partner), “strong cell viability reduction”. In data set [3] (substance alone, in absence of EGFdianthin), the “IC50 cell viability (general toxicity)” value is recorded as “strong cell viability reduction”.

As to “HSP27BNA: antisense BNA oligo targeting HSP27 mRNA, sequence 5′-GGCacagccagtgGCG-3′ (antisense GGCACAGCCAGTGGCG; BNA modifications)”, the 50% inhibitory concentration (IC50) (as a rule, the concentration at which inhibition is half-maximal) in data set [4] (titrated + fixed 28.6 nM or 77 nM cetuximab-(Cys-L-SO1861)^3.9) came out at 10 nM; in data set [4] (titrated + fixed 4000 nM SO1861-EMCH, nM of HSP27BNA or of conjugate) it was 10 nM; in data set [5] it was 10 nM.

saporin: the “influence on cell viability” value in data set [6] is on record as “do not or hardly have any influence on cell viability”.
